Measured values taken from patent US5008266A, “4(3H)-quinazolinone derivatives and pharmaceutical compositions” (Nisshin Flour Milling Co., Ltd., priority 1987, dated 1991).
Like-named read-outs stand apart in the source and are kept apart here.

How the values were obtained:
[1] = test system: indomethacin induced ulcer; assay: antiulcer activity: suppression of indomethacin induced ulcer in mice; assay type: in vivo, ddY series male mice; conditions: for inhibition in vivo at 100 mg/kg: Mus musculus, po, read-out: Suppression rate of indomethacin induced ulcer
Procedure: The antiulcer activity of the compounds of this invention was determined by the following method. Four-week-old ddY series male mice were used as the test animals after they were fasted for 24 hours. Each test compound suspended in a 1% gum arabic solution was administerd to the stomach of each mouse at a dose of 100 mg/kg, and then, after 30 minutes, 20 mg/kg of indomethacin was administered orally. Four hours after the administration of indomethacin, the stomach of mouse was extirpated and the length of ulcers was measured. Then, the ulcer index was determined by the total sum of the scores as calculated in Table 1. | TABLE 1 |Length of ulcer | 0.5 mm< 1 mm< 2 mm< 3 mm< |Score 0.5 1 2 3 The mean ulcer index of each group was calculated and the suppression rate against the control group in terms of difference in the mean ulcer index was determined.

[2] = acute toxicity, LD50 (P.O.); conditions: in vivo, po
reversion test = assay type: cell-based
[3] = background, cited from earlier work
[4] = 100 mg/kg, p.o., ddY male mice, indomethacin 20 mg/kg orally 30 minutes later, ulcers measured 4 hours after indomethacin

SMILES | inhibition in vivo at 100 mg/kg [1, 4] [%] | other results
O=c1c2ccccc2nc(SCc2nc3ccccc3[nH]2)n1-c1ccccc1 [2-(2-Benzimidazolylmethylthio)-3-phenyl-4(3H)-quinazolinone] | 81 | 
CCN(CC)CCSc1nc2ccccc2c(=O)n1-c1ccccc1 [2-(2-Diethylaminoethylthio)-3-phenyl-4(3H)-quinazolinone] | 45 | 
COc1ccc(-n2c(SCc3nccc(OC)c3C)nc3ccc(C)cc3c2=O)cc1 [2-[(4-Methoxy-3-methylpyridin-2-yl)methylthio]-3-(4-methoxyphenyl)-6-methyl-4(3H)-quinazolinone] | 49 | 
COc1cc(CSc2nc3ccc(C)cc3c(=O)n2-c2ccccc2)ncc1C [2[(4-Methoxy-5-methylpyridin-2-yl)methylthio]-6-methyl-3-phenyl-4(3H)-quinazolinone] | 44 | 
CCn1c(SCc2ccccn2)nc2ccccc2c1=O [3-Ethyl-2-(2-pyridylmethylthio)-4(3H)-quinazolinone] | 96 | LD50 [2]: > 3000 mg/kg; reversion test (reversion test): negative
O=c1c2ccccc2nc(SCc2ccccn2)n1CCc1ccccc1 [3-Phenethyl-2-(2-pyridylmethylthio)-4(3H)-quinazolinone] | 60 | 
O=c1c2ccccc2nc(SCc2cccnc2)n1-c1ccccc1 [3-Phenyl-2-(3-pyridylmethylthio)-4(3H)-quinazolinone] |  | Suppression rate of indomethacin induced ulcer [1, 4]: 63
Cc1ccc2nc(SCc3ccccn3)n(-c3ccccc3)c(=O)c2c1 [6-Methyl-3-phenyl-2-(2-pyridylmethylthio)-4(3H)-quinazolinone] | 38 | 
CN/C(=N/CCSCc1nc[nH]c1C)NC#N [Cimetidine] |  | inhibition in vivo at 100 mg/kg ([1]; 4 h): 40%; side effects ([3]; known): gynecomatism; recurrence of ulcer after suspension of administration ([3]; reported): numbers of cases are reported about recurrence of ulcer
